Laboratory results reported in PMC8280143, “A novel dephosphorylation targeting chimera selectively promoting tau removal in tauopathies” (Signal Transduction and Targeted Therapy, 2021).
“Also recorded” adds a separate entry of the source.

Experiments:
[1] = system: human tau in HEK293(hTau) cells; assay: Tau dephosphorylation and reduction in hTau-expressed HEK293 cells; assay type: cell-based; details: Supplementary Fig. S4; by contrast to neurons
Procedure: HEK293 cells with stable expression of wild-type full-length human tau (term as HEK293(hTau) cells), were cultured in DMEM (Hyclone, SH30022.01) containing 10% fetal bovine serum (Biological Industries, 04–001-1ACS) and […] G418 (Thermo Fisher Scientific, 10,131,027) under 5% CO2, 37 °C.
Cultured cells or hippocampus tissues were collected on ice, and homogenized with RIPA lysis buffer containing 50 mM Tris-HCl, 100 mM NaCl, 1% Triton X-100, 5 mM EDTA, and 1:100 PMSF, and then centrifuged at 12,000 × g for 20 min. The supernatant was collected for the analysis of soluble proteins. In some experiments, the pellets were further incubated with 8% SDS buffer at 37 °C and then ultrasound for 60 times to reach a complete resuspension for the analysis of insoluble tau. Protein concentration was measured through BCA assays (Thermo Fisher). Equal amount of protein from each sample were separated in SDS-PAGE gels, and then transferred onto nitrocellulose or 0.22 μm polyvinylidene fluoride membranes (Merck Millipore). […] Blots were visualized using ECL luminol reagent (P0018FS, Beyotime), and quantified using ImageJ software.

[2] = system: microtubules in neurites of hippocampal neurons of Tau368 mice; assay: Electron microscopy of microtubule bundles; assay type: in vivo, mouse; details: dox 2 months
Procedure: (§1) For 2-month male C57BL/6 mice, 10 mM FITC-labeled or unlabeled-DEPTAC were directly injected through the tail vein or lateral ventricle for the evaluation of BBB-penetrability. For 9-month 3×Tg AD mice or Tau368 (20–30 g body weight), unlabeled-DEPTAC (5 mM, 1 μL for each time) was delivered for once into the lateral ventricle through direct stereotaxic injection, or repeatedly administrated through guiding cannulas (RWD, Shenzhen, China) implanted into the lateral ventricle once every 3 days for a consecutive month to test its dephosphorylation efficiency. Mice were restricted in a custom designed device and stayed awake during drug administration, and sacrificed at 24 h post the single or last DEPTAC administration.
Mice were killed by overdose 1% pentobarbital sodium. Hippocampal tissues were isolated on ice, fixed in 2.5% glutaraldehyde at 4 °C for 24 h, washed in 0.1 M phosphate buffer, and post-fixed in 1% osmium acid for 2 h. After washed with phosphate buffer, tissues were dehydrated in increasing gradient of ethanol (30–100%), and incubated in turn with acetone/epoxy (2:1), acetone/epoxy (1:1) and epoxy for 12 h each at 37 °C. Tissues were subsequently embedded in epoxy at 37 °C for 48 h. Sections of 100 nm were sliced using a ultramicrotome (EM UC7, Leica), and stained in a buffer containing 2% uranium acetate and lead citrate at room temperature for 15 min. Images were taken by a transmission electron microscope (Tecnai G^2 20 TWIN, FEI). Bundles density and length were analyzed using ImageJ.

endogenous mouse tau = assay: Hippocampal endogenous mouse tau in NW-administrated Tau368 mice; assay type: in vivo; details: 30 μg total protein
Procedure: Mice weighting 20–30 g were anesthetized with 1% pentobarbital sodium (35 mg/kg), and fixed in a stereotaxic instrument (RWD). The scalp was sterilized with iodophors and 75% ethanol, and incised along the skull midline. Holes were drilled. Adeno-associated virus or DEPTAC was injected into the dorsal DG (posterior 1.9 mm, lateral ±1.1 mm from the bregma, ventral −2.0 from the skull) or lateral ventricle (posterior 0.22 mm, lateral ±1.0 mm from the bregma, ventral −2.5 from the skull), respectively, using an automatic microinjection system (World Precision Instruments, USA) at a rate of 0.05 μL/min. The needle syringe was left in place for 5 min before withdrawal. The skin was sutured and sterilized with iodophors. Mice were placed on thermos tank for analepsia.
as §1
Cultured cells or hippocampus tissues were collected on ice, and homogenized with RIPA lysis buffer containing 50 mM Tris-HCl, 100 mM NaCl, 1% Triton X-100, 5 mM EDTA, and 1:100 PMSF, and then centrifuged at 12,000 × g for 20 min. The supernatant was collected for the analysis of soluble proteins. In some experiments, the pellets were further incubated with 8% SDS buffer at 37 °C and then ultrasound for 60 times to reach a complete resuspension for the analysis of insoluble tau. Protein concentration was measured through BCA assays (Thermo Fisher). Equal amount of protein from each sample were separated in SDS-PAGE gels, and then transferred onto nitrocellulose or 0.22 μm polyvinylidene fluoride membranes (Merck Millipore). The membranes were blocked with 5% BSA, and incubated in turn with primary and horseradish peroxidase-conjugated secondary antibodies: pS199-Tau (44734G, Invitrogen, 1:2000), pT205-Tau (11108-1, Signalway, 1:2000), pS396-Tau (11102, Signalway, 1:2000), pS404-Tau (11112, Signalway, 1:2000), AT8 (MN1020, Thermo Fisher, 1:1000), Tau5 (ab80579, Abcam, 1:1000), Tau46 (T9450, Sigma, 1:1000), PP2A-Bα (4953, Cell signaling, 1:1000), Phospho-Ser/Thr (ab17464, Abcam1:1000), Ubiquitin (ab7254, Abcam, 1:1000), MAP2 (AB5622, Millipore, 1:2000), hTau-N368 (a generous gift from Prof. Keqiang Ye, Emory University School of Medicine, 1:1000), DEPTAC (developed by Daian Biotechnology, Wuhan, China, 1:500), β-actin (ab6276, Abcam, 1:2000). HRP-conjugated goat anti-rabbit IgG (A0208, Beyotime, 1:3000), HRP-conjugated goat anti-mouse IgG (A0216, Beyotime, 1:3000). Blots were visualized using ECL luminol reagent (P0018FS, Beyotime), and quantified using ImageJ software.

[3] = system: dentate granular cells of Tau368 mice; assay: Sparse labeling: dendritic spine density and mossy fiber puncta area; assay type: in vivo, mouse
Procedure: as §1
A total volume of 0.3 μL mixture of AAV-CaMKIIα-Cre (5.21E+07) and AAV-EF1α-DIO-mCherry (3.24E+12) (1:1 vol/vol) was stereotaxically injected into the dDG of Tau368 mice 1 month following the beginning of dox or normal drinking water administration. Dox was stopped 1-month post AAVs injection, and DEPTAC were delivered through lateral ventricle for a consecutive month. Behavioral tests were performed after the DEPTAC administration, and mice were killed after behavioral tests. Hippocampal sections of 60 μm were obtained, and fluorescent images were taken by a two-photon laser-scanning confocal microscope (LSM710, Zeiss). The dendrite complexity of granular cells in the dorsal dentate gyrus was evaluated by Sholl analysis using Simple Neurite Tracer plugin and ImageJ (Fiji) software. Dendrite spine density and the averaged area of mossy fiber punctas were evaluated using ImageJ by an experimenter blinded from mice groupings. It should be noted that the fluorescence-labeled mossy fibers assembled densely in the CA3 subset, the main target area of mossy fiber axon terminals, making it difficult to accurately measure the puncta areas (data not shown). Therefore, we chose the hilus of DG subset for the measurement, which we believe should be also valid to indicate the axon plasticity of DG granular cells.

neurons = assay: Neuron penetrability in vivo; parameters: species or system mouse; details: Supplementary Fig. S1a; 10 mM FITC-labeled or unlabeled-DEPTAC, C57BL/6 mice
Procedure: as §1

[4] = then 1-month DEPTAC, *p < 0.05, n = 5 mice, 12–23 view fields
[5] = NW Tau368 mice (no dox), n = 3–4
[6] = Tau368 mice without dox, n = 3 mice
[7] = dox-treated Tau368 mice, DEPTAC 1 month after stopping dox, *p < 0.05, n = 5 mice

“(1) YQQYQDATADEQG, originates from the porcine β-tubulin 422–434 for recognizing and binding tau proteins.[5],[6] (2) GSGS, a linker for increasing the flexibility of the peptide.[15] (3) KKVAVVRTPPKSP, for recruiting PP2A-Bα,[16] and (4) RRRRRRRR [DEPTAC, DEPhosphorylation TArgeting Chimera; 38 amino acid residues, C185H314N72O56]” was tested, and the “effectiveness in dephosphorylating and reducing tau in hTau-expressed HEK293 cells” value [1] was “relatively limited effectiveness”, the “density of microtubule bundles” value [2, 4] was “significantly reversed” and the “length of microtubule bundles” value [2, 4] was “significantly reversed”. For the same substance, the “microtubule disassembly in morphology” value ([2]; then DEPTAC for a consecutive month) was “efficiently reversed”, the “endogenous mouse tau phosphorylation at Ser199” value (endogenous mouse tau; [5]) was “limited effect” and the “endogenous mouse tau phosphorylation at Ser396” value (endogenous mouse tau; [5]) was “significantly downregulate”. The “endogenous mouse tau phosphorylation at Ser404” value (endogenous mouse tau; [5]) was “significantly downregulate”, the “endogenous mouse tau phosphorylation at Thr205” value (endogenous mouse tau; [5]) was “significantly downregulate” and the “endogenous mouse tau, AT8 epitope” value (endogenous mouse tau; [5]) was “limited effect”. The “endogenous mouse total tau” value (endogenous mouse tau; [5]) was “limited effect”, the “efficiency of DEPTAC on mouse tau” value (endogenous mouse tau; NW Tau368 mice, overall, compared with dox group) was “relatively limited” and the “averaged mossy fiber puncta area, without dox” value [3, 6] was “only limited effects”. For the same substance, the “dendritic spine density, without dox” value [3, 6] was “only limited effects”, the “averaged area of mossy fiber puncta” value [3, 7] was “increased; also recorded: enlarged” and the “mushroom-like dendritic spine density” value [3, 7] was “significantly increased”. The “total dendritic spine density” value [3, 7] was “significantly increased” and the “neuron penetrability in vivo” value (neurons) was “high neuron penetrability”.
